Laboratory results taken from patent US20250171431A1, “HETEROCYCLIC INHIBITORS OF IGF-1R FOR TREATMENT OF DISEASE” (HORIZON THERAPEUTICS IRELAND DAC, priority 2023, published 2025).

Target: IGF-1R (Homo sapiens (Human), UniProt P08069)
Experiment: Example B-1: IGF-1R Assay (PC3 cells, IGF1 stimulation, AlphaLISA)
Assay type: cell-based
Details: 200 ng/mL IGF1 stimulation, read-out: Biological Activity against IGF-1R IC50
How it was run: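 PC3 cells were serum-starved 2 h, treated with serially diluted compounds for 2 h, then stimulated with IGF1 (200 ng/mL final) for 30 min. Lysates were read by AlphaLISA; % inhibition was calculated relative to vehicle and EC80 controls, with IC50 values binned into ranges.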

Chain of IGF-1R (P08069 31-1367): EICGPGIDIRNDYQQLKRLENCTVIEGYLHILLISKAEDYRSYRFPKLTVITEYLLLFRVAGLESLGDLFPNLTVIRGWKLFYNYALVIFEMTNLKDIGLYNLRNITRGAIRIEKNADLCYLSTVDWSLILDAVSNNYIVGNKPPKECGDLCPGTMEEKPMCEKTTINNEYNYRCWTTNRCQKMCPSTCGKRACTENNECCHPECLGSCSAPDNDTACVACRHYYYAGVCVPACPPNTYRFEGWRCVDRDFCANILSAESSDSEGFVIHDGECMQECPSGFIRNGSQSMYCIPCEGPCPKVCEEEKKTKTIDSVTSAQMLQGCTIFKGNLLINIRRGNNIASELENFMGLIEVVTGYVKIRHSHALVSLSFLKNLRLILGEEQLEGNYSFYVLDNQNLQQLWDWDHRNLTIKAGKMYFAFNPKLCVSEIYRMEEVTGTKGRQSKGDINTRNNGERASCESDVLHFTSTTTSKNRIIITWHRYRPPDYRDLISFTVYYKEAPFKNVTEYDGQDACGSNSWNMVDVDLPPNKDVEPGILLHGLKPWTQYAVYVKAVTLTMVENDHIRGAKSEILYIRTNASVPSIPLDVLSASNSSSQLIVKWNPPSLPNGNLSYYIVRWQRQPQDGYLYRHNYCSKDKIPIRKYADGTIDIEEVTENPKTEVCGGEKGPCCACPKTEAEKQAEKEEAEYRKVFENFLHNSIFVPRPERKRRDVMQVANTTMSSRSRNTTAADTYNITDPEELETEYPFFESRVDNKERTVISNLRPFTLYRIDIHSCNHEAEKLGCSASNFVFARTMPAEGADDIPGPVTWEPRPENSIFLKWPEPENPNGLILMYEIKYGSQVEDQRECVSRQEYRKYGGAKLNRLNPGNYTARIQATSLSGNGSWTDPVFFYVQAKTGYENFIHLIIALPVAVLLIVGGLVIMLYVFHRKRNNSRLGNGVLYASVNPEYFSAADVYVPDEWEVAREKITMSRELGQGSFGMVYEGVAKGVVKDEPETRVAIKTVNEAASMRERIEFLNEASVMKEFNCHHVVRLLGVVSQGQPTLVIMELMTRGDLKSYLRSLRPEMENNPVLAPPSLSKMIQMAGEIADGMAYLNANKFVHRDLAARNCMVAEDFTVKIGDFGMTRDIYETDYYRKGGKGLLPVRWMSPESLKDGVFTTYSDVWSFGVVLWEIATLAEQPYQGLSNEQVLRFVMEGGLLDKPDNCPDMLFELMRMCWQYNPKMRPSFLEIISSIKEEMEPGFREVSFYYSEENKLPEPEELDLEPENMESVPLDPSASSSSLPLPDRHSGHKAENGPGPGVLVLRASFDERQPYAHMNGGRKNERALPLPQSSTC

Structure (SMILES) | IC50
COc1cc(Nc2nccc(Nc3cc4ccc(Cl)cc4[nH]c3=O)n2)ccc1O[C@H]1C[C@H](N(C)C)C1 [Compound 110, 7-chloro-3-(2-{3-methoxy-4-[(1r,3r)-3-(dimethylamino)cyclobutoxy]phenyl-amino}-4-pyrimidinylamino)-1,2-dihydro-2-quinolinone] | ≤ 500 nM
COc1cc(Nc2nccc(Nc3cc4cccc(Cl)c4[nH]c3=O)n2)ccc1O[C@H]1C[C@H](N(C)C)C1 [Compound 112, 8-chloro-3-(2-{3-methoxy-4-[(1r,3r)-3-(dimethylamino)cyclobutoxy]phenyl-amino}-4-pyrimidinylamino)-1,2-dihydro-2-quinolinone] | ≤ 500 nM
COc1cc(Nc2nccc(Nc3cnc4c(F)cc(F)cc4c3)n2)ccc1O[C@H]1C[C@@H](N(C)C)C1 [Compound 113, 4-(6,8-difluoro-3-quinolylamino)-2-{3-methoxy-4-[(1s,3s)-3-(dimethylamino)cyclobutoxy]phenylamino}pyrimidine] | ≤ 500 nM
COc1cc(Nc2nccc(Nc3cnc4c(F)cc(Cl)cc4c3)n2)ccc1O[C@H]1C[C@@H](N(C)C)C1 [Compound 114, 4-(6-chloro-8-fluoro-3-quinolylamino)-2-{3-methoxy-4-[(1s,3s)-3-(dimethylamino)cyclobutoxy]phenylamino}pyrimidine] | ≤ 500 nM
COc1cc(Nc2nccc(Nc3cc4ccc(F)c(F)c4[nH]c3=O)n2)ccc1O[C@H]1C[C@@H](N(C)C)C1 [Compound 117, 7,8-difluoro-3-(2-{3-methoxy-4-[(1s,3s)-3-(dimethylamino)cyclobutoxy]phenyl-amino}-4-pyrimidinylamino)-1,2-dihydro-2-quinolinone] | ≤ 500 nM
COc1cc(Nc2nccc(Nc3cnc4cc(F)cc(F)c4c3)n2)ccc1O[C@H]1C[C@@H](N(C)C)C1 [Compound 118, 4-(5,7-difluoro-3-quinolylamino)-2-{3-methoxy-4-[(1s,3s)-3-(dimethylamino)cyclobutoxy]phenylamino}pyrimidine] | ≤ 500 nM
COc1cc(Nc2nccc(Nc3cc4cc(F)c(F)cc4[nH]c3=O)n2)ccc1O[C@H]1C[C@@H](N(C)C)C1 [Compound 119, 6,7-difluoro-3-(2-{3-methoxy-4-[(1s,3s)-3-(dimethylamino)cyclobutoxy]phenyl-amino}-4-pyrimidinylamino)-1,2-dihydro-2-quinolinone] | ≤ 500 nM
COc1cc(Nc2nccc(Nc3cc4cccc(F)c4[nH]c3=O)n2)ccc1O[C@H]1C[C@@H](N(C)C)C1 [Compound 120, 8-fluoro-3-(2-{3-methoxy-4-[(1s,3s)-3-(dimethylamino)cyclobutoxy]phenyl-amino}-4-pyrimidinylamino)-1,2-dihydro-2-quinolinone] | ≤ 500 nM
COc1cc(Nc2nccc(Nc3cc4cc(F)ccc4[nH]c3=O)n2)ccc1O[C@H]1C[C@@H](N(C)C)C1 [Compound 121, 6-fluoro-3-(2-{3-methoxy-4-[(1s,3s)-3-(dimethylamino)cyclobutoxy]phenyl-amino}-4-pyrimidinylamino)-1,2-dihydro-2-quinolinone] | ≤ 500 nM
COc1cc(Nc2nccc(Nc3cc4ccc(F)cc4[nH]c3=O)n2)ccc1O[C@H]1C[C@@H](N(C)C)C1 [Compound 122, 7-fluoro-3-(2-{3-methoxy-4-[(1s,3s)-3-(dimethylamino)cyclobutoxy]phenyl-amino}-4-pyrimidinylamino)-1,2-dihydro-2-quinolinone] | ≤ 500 nM
COc1cc(Nc2nccc(Nc3cnc4ccc(F)c(F)c4c3)n2)ccc1O[C@H]1C[C@@H](N(C)C)C1 [Compound 125, 4-(5,6-difluoro-3-quinolylamino)-2-{3-methoxy-4-[(1s,3s)-3-(dimethylamino)cyclobutoxy]phenylamino}pyrimidine] | ≤ 500 nM
COc1cc(Nc2nccc(Nc3cnc4ccc(OC(F)(F)F)cc4c3)n2)ccc1O[C@H]1C[C@@H](N(C)C)C1 [Compound 128, N2-(4-((1s,3s)-3-(dimethylamino)cyclobutoxy)-3-methoxyphenyl)-N4-(6-(trifluoromethoxy)quinolin-3-yl)pyrimidine-2,4-diamine] | ≤ 500 nM
COc1cc(Nc2nccc(Nc3cnc4ccc(Cl)cc4c3)n2)cnc1O[C@H]1C[C@@H](N(C)C)C1 [Compound 131, N4-(6-chloroquinolin-3-yl)-N2-(6-((1s,3s)-3-(dimethylamino)cyclobutoxy)-5-methoxypyridin-3-yl)pyrimidine-2,4-diamine] | ≤ 500 nM
COc1cc(Nc2nccc(Nc3cnc4ccccc4c3)n2)cnc1O[C@H]1C[C@@H](N(C)C)C1 [Compound 132, N2-(6-((1s,3s)-3-(dimethylamino)cyclobutoxy)-5-methoxypyridin-3-yl)-N4-(quinolin-3-yl)pyrimidine-2,4-diamine] | ≤ 500 nM
COc1cc(Nc2nccc(Nc3cnc4cc(F)c(F)cc4c3)n2)c(C)cc1O[C@H]1C[C@@H](N(C)C)C1 [Compound 154, N4-(6,7-difluoroquinolin-3-yl)-N2-(4-((1s,3s)-3-(dimethylamino)cyclobutoxy)-5-methoxy-2-methylphenyl)pyrimidine-2,4-diamine] | ≤ 500 nM

Continued, values first:

IC50 | Structure (SMILES)
≤ 500 nM | COc1cc(Nc2nccc(Nc3cnc4c(F)cccc4c3)n2)ccc1OCCCN1CCCCC1 [Compound 96, 4-(8-fluoro-3-quinolylamino)-2-[3-methoxy-4-(3-piperidinopropoxy)phenylamino]pyrimidine]
≤ 500 nM | COc1cc(Nc2nccc(Nc3cnc4cc(F)ccc4c3)n2)ccc1OCCCN1CCCCC1 [Compound 97, 4-(7-fluoro-3-quinolylamino)-2-[3-methoxy-4-(3-piperidinopropoxy)phenylamino]pyrimidine]
≤ 500 nM | COc1cc(Nc2nccc(Nc3cnc4cc(C)ccc4c3)n2)ccc1OCCCN1CCCCC1 [Compound 98, 2-[3-methoxy-4-(3-piperidinopropoxy)phenylamino]-4-(7-methyl-3-quinolylamino)pyrimidine]
≤ 500 nM | COc1cc(Nc2nccc(Nc3cnc4c(C)cccc4c3)n2)ccc1OCCCN1CCCCC1 [Compound 99, 2-[3-methoxy-4-(3-piperidinopropoxy)phenylamino]-4-(8-methyl-3-quinolylamino)pyrimidine]
≤ 500 nM | COc1cc(Nc2nccc(Nc3cnc4c(c3)OCC(C)O4)n2)ccc1OCCCN1CCCCC1 (stereo not drawn) [Compound 101, 2-[3-methoxy-4-(3-piperidinopropoxy)phenylamino]-4-(3-methyl-2,3-dihydro-1,4-dioxa-5-aza-7-naphthylamino)pyrimidine]
≤ 500 nM | COc1cc(Nc2nccc(Nc3cnc4ccc(C5CC5)cc4c3)n2)ccc1OCCCN1CCCCC1 [Compound 102, 4-(6-cyclopropyl-3-quinolylamino)-2-[3-methoxy-4-(3-piperidinopropoxy)phenylamino]pyrimidine]
≤ 500 nM | COc1cc(Nc2nccc(Nc3cnc4ccc(C5CC5)cc4c3)n2)ccc1OCCCN1CCOCC1 [Compound 103, 4-(6-cyclopropyl-3-quinolylamino)-2-[3-methoxy-4-(3-morpholinopropoxy)phenylamino]pyrimidine]
≤ 500 nM | CCc1ccc2ncc(Nc3ccnc(Nc4ccc(OCCCN5CCOCC5)c(OC)c4)n3)cc2c1 [Compound 104, 4-(6-ethyl-3-quinolylamino)-2-[3-methoxy-4-(3-morpholinopropoxy)phenylamino]pyrimidine]
≤ 500 nM | C[C@@H]1COc2ncc(Nc3ccnc(Nc4ccc(OCCCN5CCOCC5)cc4)n3)cc2O1 [Compound 105, 4-[(R)-2-methyl-2,3-dihydro-1,4-dioxa-5-aza-7-naphthylamino]-2-[p-(3-morpholinopropoxy)phenylamino]pyrimidine]
500 to 2000 nM | C[C@H]1COc2ncc(Nc3ccnc(Nc4ccc(OCCCN5CCOCC5)cc4)n3)cc2O1 [Compound 106, 4-[(S)-2-methyl-2,3-dihydro-1,4-dioxa-5-aza-7-naphthylamino]-2-[p-(3-morpholinopropoxy)phenylamino]pyrimidine]
≤ 500 nM | COc1cc(Nc2nccc(Nc3cnc4cc(C5CC5)ccc4c3)n2)ccc1OCCCN1CCCCC1 [Compound 107, 4-(7-cyclopropyl-3-quinolylamino)-2-[3-methoxy-4-(3-piperidinopropoxy)phenylamino]pyrimidine]
≤ 500 nM | COc1cc(Nc2nccc(Nc3cc4ccccc4nc3OC)n2)ccc1OCCCN1CCCCC1 [Compound 108, 2-[3-methoxy-4-(3-piperidinopropoxy)phenylamino]-4-(2-methoxy-3-quinolylamino)pyrimidine]
≤ 500 nM | COc1cc(Nc2nccc(Nc3cc4cc(Br)ccc4[nH]c3=O)n2)ccc1O[C@H]1C[C@H](N(C)C)C1 [Compound 111]
500 to 2000 nM | COc1cc(Nc2nccc(Nc3cnc4cc(F)c(F)cc4c3)n2)cnc1N1CC2CCC(C1)O2 [Compound 126, 4-(6,7-difluoro-3-quinolylamino)-2-{5-methoxy-6-(8-oxa-3-azabicyclo[3.2.1]oct-3-y1)-3-pyridylamino}pyrimidine]
≤ 500 nM | COc1cc(Nc2nccc(Nc3cnc4cc(F)c(F)cc4c3)n2)cnc1N1C[C@H]2C[C@@H]1CO2 [Compound 127, 2-(6-{(1R,4R)-2-oxa-5-azabicyclo[2.2.1]hept-5-yl}-5-methoxy-3-pyridylamino)-4-(6,7-difluoro-3-quinolylamino)pyrimidine]
≤ 500 nM | CN(C)CC(=O)N1CCc2cc(Nc3nccc(Nc4cc5cccc(F)c5[nH]c4=O)n3)ccc21 [Compound 151, 3-((2-((1-(dimethylglycyl)indolin-5-yl)amino)pyrimidin-4-yl)amino)-8-fluoroquinolin-2(1H)-one]
≤ 500 nM | COc1cc(Nc2nccc(Nc3cnc4cc(F)c(F)cc4c3)n2)ccc1N1CCC(C)(O)CC1 [Compound 155, 1-(4-((4-((6,7-difluoroquinolin-3-yl)amino)pyrimidin-2-yl)amino)-2-methoxyphenyl)-4-methylpiperidin-4-ol]
≤ 500 nM | COc1cc(Nc2nccc(Nc3cnc4cc(F)c(F)cc4c3)n2)cnc1N1CCC(C)(O)CC1 [Compound 156, 1-(5-((4-((6,7-difluoroquinolin-3-yl)amino)pyrimidin-2-yl)amino)-3-methoxypyridin-2-yl)-4-methylpiperidin-4-ol]
